According to ChEMBL document CHEMBL5727601, “Isoquinolones as BTK inhibitors” (2020):

Target: Tyrosine-protein kinase BTK (Homo sapiens, UniProt Q06187)
Assay: Lanthscreen Eu Kinase Binding assay: A Lanthscreen Eu Kinase Binding assay (Life Technologies) was performed to quantitate the ability of test compounds to bind to BTK. The assay is based on the binding and displacement of Alexa Fluor647-labeled Kinase Tracer #236 to the ATP-binding site of human full length His-tagged BTK (Life Technologies cat # PV3587) with TR-FRET detection using a europium-labeled anti-His antibody. The assay was assembled in 384-well low volume NBS black plates (Corning) where 2 nM BTK and test compound in DMSO at varying concentrations were pre-incubated for 30 min at 28° C. in assay buffer consisting of 50 mM HEPES, pH 7.4, 10 mM MgCl2, 1 mM EGTA. 100 μM Na3VO4 and 0.01% Brij 35. Then, 2 nM of Eu-anti His antibody and 30 nM Kinase Tracer were added and incubated for […] at 28° C. Following incubation, TR-FRET signal was read on an Envision plate reader (Excitation: 340 nm; Emissions: 615 and 665 nm). The 665: 615 nm emission ratio was calculated and converted to POC compared to control and blank wells.

Tyrosine-protein kinase BTK, sequence (Q06187 whole entry): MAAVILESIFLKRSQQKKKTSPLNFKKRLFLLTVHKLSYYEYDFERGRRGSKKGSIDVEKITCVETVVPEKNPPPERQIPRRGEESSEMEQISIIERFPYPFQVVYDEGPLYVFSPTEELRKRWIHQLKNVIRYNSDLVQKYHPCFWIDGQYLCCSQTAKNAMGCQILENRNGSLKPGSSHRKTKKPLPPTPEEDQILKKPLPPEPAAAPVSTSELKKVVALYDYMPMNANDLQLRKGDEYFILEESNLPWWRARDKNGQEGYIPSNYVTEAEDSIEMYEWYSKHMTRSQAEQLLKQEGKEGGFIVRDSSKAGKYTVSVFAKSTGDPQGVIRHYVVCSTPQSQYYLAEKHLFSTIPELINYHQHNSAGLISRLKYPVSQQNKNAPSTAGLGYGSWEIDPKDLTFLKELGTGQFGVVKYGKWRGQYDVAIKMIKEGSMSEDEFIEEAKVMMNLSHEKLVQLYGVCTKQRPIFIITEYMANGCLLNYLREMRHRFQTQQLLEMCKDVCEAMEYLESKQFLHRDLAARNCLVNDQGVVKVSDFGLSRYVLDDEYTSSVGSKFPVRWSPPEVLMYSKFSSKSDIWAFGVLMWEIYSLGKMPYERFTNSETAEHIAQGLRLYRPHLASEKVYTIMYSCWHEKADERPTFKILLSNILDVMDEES

IC50: 0.9 nM
Compound: C=CC(=O)N1CC(c2cc3cc(C4CC4)ccc3c(=O)n2-c2cccc(-c3ccnc(N)c3)c2CO)C1
